From US5733563A, “Albumin based hydrogel” (Universite du Quebec a Montreal, priority 1996, dated 1998) come the findings set out here.

Series [1] addresses asparaginase of E.coli immobilized in hydrogel prepared with albumin and PEG 10,000 (Escherichia coli, UniProt P00805). Briefly: Apparent Km of asparaginase immobilized in albumin-PEG 10,000 hydrogel. It counts as biochemical. The settings on record: slab thickness of 3 mm. Here is the method:
(§1) As another example of enzyme immobilization in hydrogels prepared with albumin and PEG 10,000 of Mr, the enzyme asparaginase of E.coli was used. […] The operational stability of the immobilized enzyme in presence of a continuous feeding in substrate extend at 37° C. over a 20 days period without significant loss of activity.

Substrate in series [2]: NC(=O)C[C@H](N)C(=O)O
Briefly: Km of soluble asparaginase for asparagine. It counts as biochemical, E.coli. To be noted: other: soluble form of the enzyme; pH 8.0; 37.0 °C. As to the method: as §1

As to `NC(=O)C[C@H](N)C(=O)O` [asparagine], the “apparent Km for the substrate asparagine” value in series [1] amounted to 2.4 µM.

B1: asparaginase of E.coli, soluble form (Escherichia coli K-12) (protein)
chain: LPNITILATGGTIAGGGDSATKSNYTVGKVGVENLVNAVPQLKDIANVKGEQVVNIGSQDMNDNVWLTLAKKINTDCDKTDGFVITHGTDTMEETAYFLDLTVKCDKPVVMVGAMRPSTSMSADGPFNLYNAVVTAADKASANRGVLVVMNDTVLDGRDVTKTNTTDVATFKSVNYGPLGYIHNGKIDYQRTPARKHTSDTPFDVSKLNELPKVGIVYNYANASDLPAKALVDAGYDGIVSAGVGNGNLYKSVFDTLATAAKTGTAVVRSSRVPTGATTQDAEVDDAKYGFVASGTLNPQKARVLLQLALTQTKDPQQIQQIFNQY
Usually Km stands for the concentration of substrate that gives half-maximal velocity. For the molecule B1, the Km in series [2] turned out to be 2.2 µM.
